The experiment relates to HeLa. As to the kind of experiment: Cytotoxicity against HeLa cells by MTT […] assay. The format is functional, cell-based. The following applies: Homo sapiens.

What is called IC50 is the point on the concentration scale where inhibition reaches its midpoint. A higher IC50 goes with weaker potency in that assay. `CO[C@H](c1ccc(O)cc1)[C@H]1NC(=O)[C@H](CCC(N)=O)N(C)C(=O)[C@H](CC(C)C)NC(=O)[C@@H](CCCNC(=N)N)NC(=O)[C@@H]([C@@H](C)O)NC(=O)[C@H](NC(=O)[C@H]2NC(=O)[C@H](C)[C@@H]2C)[C@@H](C)OC(=O)[C@H](C)N(C)C1=O` [CALLIPELTIN B] came in with an IC50 of 98 µM.
Next, `CC(C)C[C@@H]1NC(=O)[C@@H](CCCNC(=N)N)NC(=O)[C@@H]([C@@H](C)O)NC(=O)[C@H](NC(=O)[C@H]2NC(=O)[C@H](C)[C@@H]2C)[C@@H](C)OC(=O)[C@H](C)N(C)C(=O)[C@@H](Cc2ccc(O)cc2)NC(=O)[C@H](CCC(N)=O)N(C)C1=O` [DESMETHOXYCALLIPELTIN B]: 128 µM.

For the origin of these results see ChEMBL document CHEMBL1149668, “Synthesis and cytotoxicity of desmethoxycallipeltin B: lack of a quinone methide for the cytotoxicity of callipeltin B” (Bioorg Med Chem Lett, 2007).
